Assay results from ChEMBL document CHEMBL1255556, “6-Alkoxyisoindolin-1-one based dopamine D2 partial agonists as potential antipsychotics” (Bioorg Med Chem Lett, 2010).

Experiments:
[1] = target: 5-hydroxytryptamine receptor 2A (Homo sapiens, UniProt P28223); test: Binding affinity to human 5HT2A receptor
[2] = target: T1, 5-hydroxytryptamine receptor 1A (Homo sapiens, UniProt P08908); test: Binding affinity to human 5HT1A receptor expressed in HeLa cells by scintillation proximity assay; format: cell-based
T1 sequence (P08908 whole entry): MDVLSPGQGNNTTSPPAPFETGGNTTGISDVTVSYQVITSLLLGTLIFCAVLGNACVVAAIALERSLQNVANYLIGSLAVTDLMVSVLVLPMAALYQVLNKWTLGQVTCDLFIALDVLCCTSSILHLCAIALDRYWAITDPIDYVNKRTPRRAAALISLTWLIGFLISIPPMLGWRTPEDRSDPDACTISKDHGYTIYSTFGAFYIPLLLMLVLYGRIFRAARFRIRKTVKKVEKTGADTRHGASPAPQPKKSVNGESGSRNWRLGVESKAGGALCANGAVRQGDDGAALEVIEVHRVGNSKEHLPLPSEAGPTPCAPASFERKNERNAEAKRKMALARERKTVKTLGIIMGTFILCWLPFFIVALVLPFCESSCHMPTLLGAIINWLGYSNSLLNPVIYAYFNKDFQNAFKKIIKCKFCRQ

[3] = target: T2, Sodium-dependent serotonin transporter (Homo sapiens, UniProt P31645); test: Displacement of [3H]-citalopram from human serotonin transporter expressed in HEK 293 cells by scintillation proximity assay; format: cell-based, HEK293
[4] = target: T2, Sodium-dependent serotonin transporter; test: Displacement of [3H]-citalopram from human serotonin transporter expressed in HEK 293 cells; format: cell-based, HEK293

5-hydroxytryptamine receptor 2A, sequence (P28223 whole entry): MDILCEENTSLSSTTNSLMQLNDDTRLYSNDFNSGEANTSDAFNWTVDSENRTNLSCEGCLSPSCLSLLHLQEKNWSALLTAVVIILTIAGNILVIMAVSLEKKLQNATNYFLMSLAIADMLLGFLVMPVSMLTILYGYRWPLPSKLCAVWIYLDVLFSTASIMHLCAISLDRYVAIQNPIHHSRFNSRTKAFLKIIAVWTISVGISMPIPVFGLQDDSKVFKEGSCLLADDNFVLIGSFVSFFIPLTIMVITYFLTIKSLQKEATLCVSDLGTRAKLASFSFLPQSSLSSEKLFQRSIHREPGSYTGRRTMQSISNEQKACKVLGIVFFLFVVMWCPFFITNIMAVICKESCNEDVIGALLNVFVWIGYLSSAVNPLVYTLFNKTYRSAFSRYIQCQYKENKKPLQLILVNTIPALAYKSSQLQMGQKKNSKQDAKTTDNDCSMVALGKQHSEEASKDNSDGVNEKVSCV
T2 sequence (P31645 whole entry): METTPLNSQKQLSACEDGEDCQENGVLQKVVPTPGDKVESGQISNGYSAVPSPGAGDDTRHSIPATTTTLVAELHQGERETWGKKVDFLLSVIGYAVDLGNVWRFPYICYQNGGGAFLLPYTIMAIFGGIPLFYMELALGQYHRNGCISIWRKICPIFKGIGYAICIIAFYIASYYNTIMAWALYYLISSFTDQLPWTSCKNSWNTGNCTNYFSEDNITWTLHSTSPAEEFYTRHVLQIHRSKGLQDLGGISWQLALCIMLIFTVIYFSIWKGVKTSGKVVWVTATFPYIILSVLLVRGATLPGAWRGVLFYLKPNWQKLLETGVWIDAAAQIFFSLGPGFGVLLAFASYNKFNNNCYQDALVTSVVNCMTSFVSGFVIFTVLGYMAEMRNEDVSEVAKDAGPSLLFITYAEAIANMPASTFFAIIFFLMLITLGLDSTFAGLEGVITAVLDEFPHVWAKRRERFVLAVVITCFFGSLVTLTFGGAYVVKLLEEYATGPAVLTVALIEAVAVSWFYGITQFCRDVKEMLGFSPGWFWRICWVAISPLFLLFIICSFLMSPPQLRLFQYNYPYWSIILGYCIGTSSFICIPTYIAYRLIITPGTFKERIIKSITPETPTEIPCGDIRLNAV

| Ki [1] [nM] | Ki [2] [nM] | Ki [3] [nM] | Ki [4] [nM] | Structure (SMILES) |
| --- | --- | --- | --- | --- |
| 16.1 | 2.13 | 437 | – | Cc1c(OCCCN2CCN(c3cccc4cccc(F)c34)CC2)ccc2c1C(=O)NC2 |
| 25.3 | 1.68 | 45.6 | – | O=C1NCc2cc(Cl)c(OCCCCN3CCN(c4cccc5cccc(F)c45)CC3)cc21 |
| 126 | 6.88 | – | – | O=C1NCc2ccc(OCCCCN3CCN(c4cccc5c4COC5)CC3)cc21 |
| 55.9 | 0.67 | 1040 | – | Cc1cc2c(cc1OCCCN1CCN(c3cccc4ccccc34)CC1)C(=O)NC2 |
| 4.86 | 0.269 | – | – | O=C1NCc2ccc(OCCCN3CCN(c4cccc5c4CCCC5)CC3)cc21 |
| 8.84 | 0.859 | 20.2 | – | O=C1NCc2cc(Cl)c(OCCCN3CCN(c4cccc5cccc(F)c45)CC3)cc21 |
| 3.55 | 0.312 | 230 | – | O=C1NCc2ccc(OCCCN3CCN(c4cccc5cccc(F)c45)CC3)c(Cl)c21 |
| 17.1 | 0.863 | – | – | O=C1NCc2ccc(OCCCCN3CCN(c4cccc5c4OCCC5)CC3)cc21 |
| 3.45 | < 0.14 | – | 160 | O=C1NCc2ccc(OCCCN3CCN(c4cccc5cccc(F)c45)CC3)c(F)c21 |
| 14 | 17.5 | 47 | – | Cc1c(OCCCCN2CCN(c3cccc4cc(F)ccc34)CC2)ccc2c1C(=O)NC2 |
| 29.5 | 1.98 | 8.81 | – | Cc1cc2c(cc1OCCCCN1CCN(c3cccc4cc(F)ccc34)CC1)C(=O)NC2 |
| 36.8 | 0.803 | 504 | – | Cc1cc2c(cc1OCCCCN1CCN(c3cccc4ccccc34)CC1)C(=O)NC2 |
| 9.43 | 0.615 | 194 | – | Cc1c(OCCCN2CCN(c3cccc4ccccc34)CC2)ccc2c1C(=O)NC2 |
| 34.4 | 0.814 | 67.7 | – | O=C1NCc2cc(Cl)c(OCCCN3CCN(c4cccc5ccccc45)CC3)cc21 |
| 1.13 | 4.25 | 213 | – | O=C1NCc2ccc(OCCCCN3CCN(c4cccc5cccc(F)c45)CC3)c(Cl)c21 |
| 3.35 | 1.92 | – | – | O=C1NCc2ccc(OCCCCN3CCN(c4cccc5c4CCCC5)CC3)cc21 |
| 55 | 3.61 | 118 | – | Cc1cc2c(cc1OCCCCN1CCN(c3cccc4cccc(F)c34)CC1)C(=O)NC2 |
| 12.5 | 1.08 | 21.4 | – | Cc1c(OCCCN2CCN(c3cccc4cc(F)ccc34)CC2)ccc2c1C(=O)NC2 |
| 3.16 | > 4.04 | – | – | O=C1NCc2ccc(OCCCN3CCN(c4cccc5c4CCC5)CC3)cc21 |
| 25.3 | 0.0501 | – | – | O=C1NCc2ccc(OCCCN3CCN(c4cccc5c4OCCC5)CC3)cc21 |
| 10.1 | 0.74 | – | – | O=C1NCc2ccc(OCCCCN3CCN(c4cccc5c4CCC5)CC3)cc21 |
| 53.4 | 1.45 | – | – | O=C1NCc2ccc(OCCCCN3CCN(c4cccc5c4CCO5)CC3)cc21 |
| 4.29 | 1.46 | – | – | O=C1NCc2ccc(OCCCN3CCN(c4cccc5c4CCO5)CC3)cc21 |
| 24.7 | 2.34 | 96.3 | – | O=C1NCc2cc(Cl)c(OCCCCN3CCN(c4cccc5ccccc45)CC3)cc21 |
| 3.85 | 2.61 | 292 | – | Cc1c(OCCCCN2CCN(c3cccc4cccc(F)c34)CC2)ccc2c1C(=O)NC2 |
| 52 | 0.517 | 13.6 | – | Cc1cc2c(cc1OCCCN1CCN(c3cccc4cc(F)ccc34)CC1)C(=O)NC2 |
| 65.7 | 1.44 | 174 | – | Cc1cc2c(cc1OCCCN1CCN(c3cccc4cccc(F)c34)CC1)C(=O)NC2 |
| 2.06 | 0.786 | 104 | – | O=C1NCc2ccc(OCCCN3CCN(c4cccc5ccccc45)CC3)c(Cl)c21 |
| 1.26 | 3.22 | 388 | – | Cc1c(OCCCCN2CCN(c3cccc4ccccc34)CC2)ccc2c1C(=O)NC2 |
